Test results reported in patent US10550094B2, “Compounds having antioxidant activity against free radicals and anti-inflammatory activity, and corresponding pharmaceutical or cosmetic compositions for skin care” (GIULIANI S.P.A., priority 2015, dated 2020).

How the values were obtained:
fillagrin (FLG) = assay: Skin barrier function protection: filaggrin (FLG) gene expression by qRT-PCR in LPS-treated keratinocytes; type: cell-based, human; settings: 13.5 μM, with LPS, Control + LPS = 1.000
Description: (§1) The immortalized line of human keratinocytes NCTC2544 is used (Perry V. P. et al., 1957), cultured in sterile flasks ([…]), incubated at 37° C. in a humid atmosphere at 5% CO2 in RPMI culture medium added with bovine fetal serum (FBS), 2 mm glutamine, 1% non-essential amino acids, in the presence of 1% penicillin and streptomycin. The 1:3 split is done every 2 days upon achieving the monolayer by washing with 1×PBS (phosphate buffer without Ca^2+ and Mg^2+) and detachment of cells with a trypsin-EDTA solution at 37° C. for 2 minutes. The cells were kept in culture in 25 cm^3 sterile flasks and incubated at 37° C. in a humid atmosphere at 5% CO2.
(§2) Negative control: untreated cells in RPMI medium added to 2.5% fetal bovine serum (FBS), 1% non-essential amino acids (NEAA), 1% of a penicillin and streptomycin mixture (Pen-Strep Mix), and kept in (12 well) 25 cm^2 culture plates at 37° C. and 5% CO2.
(§3) Positive control: cells in RPMI medium added to 2.5% fetal bovine serum (FBS), 1% non-essential amino acids (NEAA), 1% of a penicillin and streptomycin mixture (Pen-Strep Mix) and 10 μg/mL LPS (lipopolysaccharide) and kept in ([…]) 25 cm^2 culture plates at 37° C. and 5% CO2 (in the dark).
(§4) Study of the Skin Barrier Function Protection
(§5) The gene expression of the involucrin (IVL) and fillagrin (FLG) markers was evaluated by relative quantitative RT-PCR (quantitative reverse transcription-polymerase chain reaction-qRT-PCR).
(§6) This assay involved three sequential steps: • extraction of total RNA; • retrotranscription in cDNA; • qRT-PCR.
(§7) Human keratinocytes NCTC2544 were seeded in 12-well plates at the density of 0.5*10^6 cells/well and incubated until reaching about 80% confluence.
(§8) Then, the cells were incubated for 16 and 24 hours with the active compounds to be tested and the respective controls at the following concentrations: 13.5 and 27 μM, and admixed (in the well) with 10 μg/ml LPS.
(§9) The dilutions were prepared starting from 1000× stock in DMSO, sterile-filtered and using RPMI medium added to 2.5% fetal bovine serum (FBS), 1% non-essential amino acids (NEAA), 1% of a penicillin and streptomycin mixture (Pen-Strep Mix).
(§10) Cells kept in the culture medium alone (RPMI 2.5% FBS) were used as a negative control.
(§11) Cells in the culture medium alone (RPMI 2.5% FBS) and treated only with 10 μg/mL LPS were used as a positive control.
(§12) After incubation, the RNA was extracted. Total RNA was extracted from NCTC 2544 cells using the commercial kit Ribospin™ (GeneAllBiotechnology Co., LTD).
(§13) For RT-PCR amplification, the TaqMan® probe (AppliedBiosystems) method was used. The following TYaqMan probe was used: Hs00846307_s1 (IVL) and Hs00863478_g1 (FLG).
(§14) GAPDH: Hs99999905_m1 was used as control gene (housekeeping).
(§15) The data obtained were analyzed according to the method of 2-ΔΔCt and so it was possible to calculate the relative values of expression of the gene of interest, normalized compared to the housekeeping gene and calibrated on the control sample (untreated cells): ΔΔCt=ΔCttarget-housekeeping (control)−ΔCttarget-housekeeping (treated cells)
(§16) The 2^−ΔΔCt was calculated assuming an amplification efficiency of 100%.

TNF-α = assay: Anti-inflammatory activity: TNF-α gene expression by qRT-PCR in LPS-treated keratinocytes; type: cell-based, human; settings: for TNF-α (relative gene expression): 10 μg/ml LPS, NCTC 2544; for Comparison vs LFS (%): TNF-α vs Control + LPS
Description: as §1, §2, §3
Study of the Anti-inflammatory Activity-NCTC 2544
The gene expression of the TNF-α inflammation marker was evaluated by relative quantitative RT-PCR (quantitative reverse transcription-polymerase chain reaction-qRT-PCR).
as §6
Human keratinocytes NCTC 2544 were seeded in 12-well plates at the density of […] cells/well and incubated until reaching about 80% confluence.
Then, the cells were incubated for 16 and 24 hours with the compounds of the invention to be tested and the respective controls at the following concentrations: 13.5 μM and 27 μM, and admixed (in the well) with 10 μg/ml LPS.
as §9, §10, §11, §12
At the end of incubation with the active compounds of the invention, cells were washed with PBS (1×) and finally subjected to RNA extraction procedure. At the end of the extraction, using a spectrophotometer (Jenway UV/VIS MOD: 6715, BS-6715B0), concentrations were calculated in μg/mL of total RNA extracted at a wavelength of 260 nm.
For RT-PCR amplification, the TaqMan® probe (AppliedBiosystems) method was used. The following TYaqMan probe was used: Hs00174128_m1 (TNF-α). GAPDH: Hs99999905_m1 was used as control gene (housekeeping).
The data obtained were analyzed according to the method of 2-ΔΔCt and so it was possible to calculate the relative values of expression of the gene of interest, normalized compared to the housekeeping gene and calibrated on the control sample (untreated cells): ΔCt=ΔCttarget-housekeeping (control)−ΔCttarget-housekeeping (treated cells)
as §16

[1] = HORAC Hydroxyl radical antioxidant capacity assay
From the text: HORAC Assay: Hydroxyl Antioxidant Capacity In Vitro
The commercial kit “Oxiselect Hydroxyl Radical Antioxidant Capacity (HORAC) activity assay” (Cell Biolabs).
The HORAC assay esxpresses the compound antiradical capacity towards the hydroxyl radical OH′ and is based on the oxidation of a fluorescent probe by hydroxyl radicals through a hydrogen transfer process (HAT). Hydroxyl radicals are produced by a radical initiator hydroxyl and by Fenton's reagent, which quenches the fluorescent probe over time. The antioxidants present in the sample block the oxidation by the hydroxyl radical of the fluorescent probe until the antioxidant activity in the sample runs out. The remaining hydroxyl radicals destroy the fluorescence of the fluorescent probe. The antioxidant capacity of the sample is related to the fluorescence decay curve, which usually is represented as the area under the curve (AUC). The AUC is used to quantify the total antioxidant activity of the hydroxyl radical in a sample and is compared to the curve of an antioxidant standard.
The compounds of the invention were tested at the following concentrations: 13.5 μM; 27 μM, 13.5 mM; 27 mM.
For comparison purposes, also samples of the compound monofurfurylidene-2.4-sorbitol defined below by the acronym ARGB11, were in this case tested under the same two concentrations, as a reference compound according to EP0345362 mentioned above as the background art of substances with free radical inhibition activity.

involucrin (IVL) = assay: Skin barrier function protection: involucrin (IVL) gene expression by qRT-PCR in LPS-treated keratinocytes; type: cell-based, human; settings: 13.5 μM, with LPS, Control + LPS = 1.000
Description: as §1, §2, §3, §4, §5, §6, §7, §8, §9, §10, §11, §12, §13, §14, §15, §16

[2] = higher dosages (13.5 μM and 27 μM)
[3] = lower concentrations 13.5 μM and 27 μM

Row | SMILES | (FLG) 16 h RQ ± SEM (fillagrin (FLG)) | TNF-α (relative gene expression) (TNF-α; 13.5 μM, 16 h) | Comparison vs LFS (%) (TNF-α; 13.5 μM, 16 h) | TNF-α (relative gene expression) (TNF-α; 13.5 μM, 24 h) | Comparison vs LFS (%) (TNF-α; 13.5 μM, 24 h) | TNF-α (relative gene expression) (TNF-α; 27 μM, 16 h) | Comparison vs LFS (%) (TNF-α; 27 μM, 16 h) | TNF-α (relative gene expression) (TNF-α; 27 μM, 24 h) | Comparison vs LFS (%) (TNF-α; 27 μM, 24 h) | anti-inflammatory activity (TNF-α), assessment in words (TNF-α; higher dose) | HORAC (Hydroxyl Radical Antioxidant Capacity) ([1]; 13.5 μM) [μMole GAE/L] | HORAC (Hydroxyl Radical Antioxidant Capacity) ([1]; 27 μM) [μMole GAE/L] | HORAC (Hydroxyl Radical Antioxidant Capacity) ([1]; 13.5 mM) [μMole GAE/L] | HORAC (Hydroxyl Radical Antioxidant Capacity) ([1]; 27 mM) [μMole GAE/L] | HORAC activity compared with reference ARGB11 [1, 2] | HORAC activity compared with reference ARGB11 [1, 3] | (IVL) 16 h RQ ± SEM (involucrin (IVL)) | anti-inflammatory activity (TNF-α), assessment in words (TNF-α; lower dose)
1 | OCC(O)C1OC(c2ccccc2)OC(CO)C1O (stereo not drawn) [Sorbityl benzal, sorbityl benzal] | 16.971 ± 2.987 | 0.39 | 87.93 | 0.71 | 96.50 | 0.08 | 97.62 | 0.01 | 99.97 | particularly significant | 31.04 | 40.110 | 308.497 | 408.795 | fully comparable activity | fully comparable activity | 6.646 ± 1.733 | –
2 | COc1cc(C2OC(CO)C(O)C(C(O)CO)O2)ccc1O (stereo not drawn) [Sorbityl vanillinal, sorbityl vanillinal] | 4.408 ± 2.683 | 0.04 | 98.64 | 0.09 | 99.57 | 0.15 | 95.44 | 0.21 | 98.95 | – | 70.29 | 115.422 | 3544.098 | 3261.945 | higher activity than the selected reference ARGB11 | higher than the selected reference ARGB11 | 18.347 ± 1.664 | remarkable
3 | O=C(OCC1OC(c2ccco2)OC(C(COC(=O)c2ccccc2)OC(=O)c2ccccc2)C1OC(=O)c1ccccc1)c1ccccc1 (stereo not drawn) [Tetrabenzoyl sorbityl furfural, tetrabenzoyl sorbityl furfural] | 22.864 ± 7.892 | 0.63 | 80.28 | 2.51 | 87.69 | 0.45 | 85.81 | 0.28 | 98.63 | – | 37.65 | 41.485 | 300.856 | 211.479 | fully comparable activity | fully comparable activity | 9.563 ± 1.159 | –
4 | CC(=O)OCC1OC(c2ccco2)OC(C(COC(C)=O)OC(C)=O)C1OC(C)=O (stereo not drawn) [Tetracetyl sorbityl furfural, tetracetyl sorbityl furfural] | 11.158 ± 5.679 | 0.35 | 89.06 | 5.75 | 71.78 | 0.28 | 91.18 | 0.12 | 99.39 | – | 797.50 | 171.083 | 330.960 | 428.775 | fully comparable activity | higher than the selected reference ARGB11 | 57.282 ± 17.060 | –
